Test system: 299254-011-R-J1-PDC complex spheroid viability
Assay: Anticancer human tumor 299254-011-R-J1-PDC patient-derived melanoma cell line growth inhibition [POLQ]
Conditions: for IC50: curve of first compound; for viability, T/C: stronger effect = lower value
Procedure: Multicellular complex tumor spheroid response to Polymerase (POL) inhibitors (novobiocin, ART-558, RP6685) in combination with a variety of drugs and investigational agents in selected tumor cell lines
The POL inhibitors (novobiocin, ART-558, and RP6685) were evaluated both individually and in combination with standard of care and investigational anticancer small molecules within a complex spheroid model of solid tumors. . Complex spheroids include a stromal component modeled by human endothelial cells (HUVEC) and fibroblasts modeled by human mesenchymal stem cells (MSCs). The concentration ranges selected for each drug and investigational agent were based upon clinically achievable concentrations if the clinical Cmax of the agent was known.
Compounds. The drugs and investigational agents: novobiocin (NSC847541), ART-558 (NSC835418), RP-6685 (NSC848927), peposertib (NSC802822), ceralasertib (NSC780249), elimusertib (NSC800525), camonsertib (NSC841442), AZD-1390 (NSC803789), olaparib (NSC753686), talazoparib (NSC767125), rucaparib (NSC756644), sotorasib (NSC818433), MRTX-1133 (NSC836407), SN-38 (NSC673596), topotecan (NSC609699), epotoside (NSC141540), doxorubicin (NSC123127), gemcitabine (NSC613327), 5-fluorouracil (NSC19893), paclitaxel (NSC125973), vemurafenib (NSC761431), MSA-2 (NSC828583), SN-011 (NSC837082), adavosertib (NSC754352), prexasertib (NSC758257), carboplatin (NSC241240) and oxaliplatin (NSC266046), were obtained from the National Cancer Institute (NCI) Developmental Therapeutics Program Chemical Repository (21). The FDA-approved anticancer drug set is available from the Developmental Therapeutics Program at https://dtp.cancer.gov/organization/dscb/obtaining/. […] The stock solutions were prepared in dimethyl sulfoxide (DMSO, Sigma-Aldrich, St. Louis, MO, cat. D2650), except for the platinum compounds which were prepared in saline (Quality Biological, Gaithersburg, MD, cat. 114-055-101), at 800-fold the tested concentration and stored at -70 degrees C prior to their use. All drugs and investigational agents were tested over a range starting from a high concentration at or near the clinical Cmax and decreasing in half-log increments. If the clinical Cmax for an agent had not been determined, the highest concentration tested was 10 microM, except for SN-38, which was tested at a high concentration of 1 microM.
Cell Culture. All cells were maintained in an incubator at 37 degrees C and 5% CO2 with 95% humidity. The PDC lines were cultured according to standard operating procedures established by the NCI PDMR (https://pdmr.cancer.gov). Table 3 of the manuscript, lists the cell lines along with the number of the three cell types plated to form the mct-spheroids and media for tumor cell growth. After thawing, all PDC lines, except 997537-175-T-J1-PDC and 415267-285-R-J2-PDC, were cultured in Matrigel-coated flasks prepared with a working solution of 1X Ham's F-12 nutrient mix, without supplementation (Thermo Fisher Scientific, cat. 11765054), 100 U/mL penicillin-streptomycin (Thermo Fisher Scientific, cat. 15140122), and 2.5% Matrigel (Corning Inc., Corning, NY, cat. 354248) for the first three passages. The two PDC lines 997537-175-T-J1-PDC and 415267-285-R-J2-PDC were cultured on uncoated flasks. The 857933-349-R-J2-PDC line was cultured in 6C/Colon 1B media containing advanced DMEM/F-12 (Thermo Fisher Scientific, cat. 12634028), 10 mM HEPES (Thermo Fisher Scientific, cat. 15630080), 1X GlutaMAX supplement (Thermo Fisher Scientific, cat. 35050061), 0.1 mg/mL primocin (InvivoGen, San Diego, CA, cat. ant-pm-2), 10% defined fetal bovine serum, heat inactivated (HyClone Laboratories Inc., Logan, UT, cat. SH30070.03HI), 50% L-WRN conditioned media (ATCC, cat. CRL-3276), 1.25 mM N-Acetyl-L-cysteine (Sigma-Aldrich, cat. A9165), 10 mM nicotinamide (Sigma-Aldrich, cat. N0636), 1X B-27 supplement (Thermo Fisher Scientific, cat. 17504044), 1X N-2 supplement (Thermo Fisher Scientific, cat. […]

[1] = second compound 0.0316 µM, first compound 0.0316 µM
[2] = second compound 0.0316 µM, first compound 0.1 µM
[3] = second compound 0.1 µM, first compound 0.0316 µM
[4] = second compound 0.1 µM, first compound 0.1 µM
[5] = second compound 0.316 µM, first compound 0.0316 µM
[6] = second compound 0.316 µM, first compound 0.1 µM
[7] = second compound 1 µM, first compound 0.0316 µM
[8] = second compound 1 µM, first compound 0.1 µM
[9] = second compound 3.16 µM, first compound 0.0316 µM
[10] = second compound 3.16 µM, first compound 0.1 µM
[11] = second compound 10 µM, first compound 0.0316 µM
[12] = second compound 10 µM, first compound 0.1 µM
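Further: spheroids exposed to drugs for one week before measurement.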
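Wherever viability, T/C is given: percent viability relative to DMSO vehicle control taken as 100%.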

COc1cc2cc(C(=O)CCC(=O)O)sc2cc1OC + Nc1ccc(C#CCN(C(=O)Cc2ncc(C(F)(F)F)cc2C(F)(F)F)c2ccc(F)cc2)nn1
IC50 (second compound 0.0316 µM): > 10 µM | IC50 (second compound 0.1 µM): > 10 µM | IC50 (second compound 0.316 µM): > 10 µM | IC50 (second compound 1 µM): > 10 µM | IC50 (second compound 3.16 µM): > 10 µM | IC50 (second compound 10 µM): > 10 µM | viability, T/C [1]: 99% | viability, T/C [2]: 97.8% | viability, T/C (second compound 0.0316 µM, first compound 0.316 µM): 85.9% | viability, T/C (second compound 0.0316 µM, first compound 1 µM): 94% | viability, T/C (second compound 0.0316 µM, first compound 3.16 µM): 111% | viability, T/C (second compound 0.0316 µM, first compound 10 µM): 106% | viability, T/C [3]: 96.9% | viability, T/C [4]: 83.8% | viability, T/C (second compound 0.1 µM, first compound 0.316 µM): 82.3% | viability, T/C (second compound 0.1 µM, first compound 1 µM): 105% | viability, T/C (second compound 0.1 µM, first compound 3.16 µM): 111% | viability, T/C (second compound 0.1 µM, first compound 10 µM): 102% | viability, T/C [5]: 99.3% | viability, T/C [6]: 102% | viability, T/C (second compound 0.316 µM, first compound 0.316 µM): 90.5% | viability, T/C (second compound 0.316 µM, first compound 1 µM): 86.3% | viability, T/C (second compound 0.316 µM, first compound 3.16 µM): 97.5% | viability, T/C (second compound 0.316 µM, first compound 10 µM): 102% | viability, T/C [7]: 77.2% | viability, T/C [8]: 94.6% | viability, T/C (second compound 1 µM, first compound 0.316 µM): 92.4% | viability, T/C (second compound 1 µM, first compound 1 µM): 91.4% | viability, T/C (second compound 1 µM, first compound 3.16 µM): 94.7% | viability, T/C (second compound 1 µM, first compound 10 µM): 93.4% | viability, T/C [9]: 109% | viability, T/C [10]: 87.8% | viability, T/C (second compound 3.16 µM, first compound 0.316 µM): 97.4% | viability, T/C (second compound 3.16 µM, first compound 1 µM): 102% | viability, T/C (second compound 3.16 µM, first compound 3.16 µM): 100% | viability, T/C (second compound 3.16 µM, first compound 10 µM): 115% | viability, T/C [11]: 104% | viability, T/C [12]: 88% | viability, T/C (second compound 10 µM, first compound 0.316 µM): 92.6% | viability, T/C (second compound 10 µM, first compound 1 µM): 99.4% | viability, T/C (second compound 10 µM, first compound 3.16 µM): 86.7% | viability, T/C (second compound 10 µM, first compound 10 µM): 87.1%

Cn1ncnc1[C@H]1c2n[nH]c(=O)c3cc(F)cc(c23)N[C@@H]1c1ccc(F)cc1 + COC1C(OC(N)=O)C(O)C(Oc2ccc3c(O)c(NC(=O)c4ccc(O)c(CC=C(C)C)c4)c(=O)oc3c2C)OC1(C)C
IC50 (second compound 0.0316 µM): > 0.1 µM | IC50 (second compound 0.1 µM): > 0.1 µM | IC50 (second compound 0.316 µM): > 0.1 µM | IC50 (second compound 1 µM): > 0.1 µM | IC50 (second compound 3.16 µM): > 0.1 µM | IC50 (second compound 10 µM): > 0.1 µM | viability, T/C (second compound 0.0316 µM, first compound 0.000316 µM): 106% | viability, T/C (second compound 0.0316 µM, first compound 0.001 µM): 84.4% | viability, T/C (second compound 0.0316 µM, first compound 0.00316 µM): 101% | viability, T/C (second compound 0.0316 µM, first compound 0.01 µM): 98.8% | viability, T/C [1]: 97% | viability, T/C [2]: 98.1% | viability, T/C (second compound 0.1 µM, first compound 0.000316 µM): 101% | viability, T/C (second compound 0.1 µM, first compound 0.001 µM): 91.3% | viability, T/C (second compound 0.1 µM, first compound 0.00316 µM): 105% | viability, T/C (second compound 0.1 µM, first compound 0.01 µM): 90.9% | viability, T/C [3]: 106% | viability, T/C [4]: 87.6% | viability, T/C (second compound 0.316 µM, first compound 0.000316 µM): 89.4% | viability, T/C (second compound 0.316 µM, first compound 0.001 µM): 94.6% | viability, T/C (second compound 0.316 µM, first compound 0.00316 µM): 101% | viability, T/C (second compound 0.316 µM, first compound 0.01 µM): 92% | viability, T/C [5]: 107% | viability, T/C [6]: 96.2% | viability, T/C (second compound 1 µM, first compound 0.000316 µM): 105% | viability, T/C (second compound 1 µM, first compound 0.001 µM): 111% | viability, T/C (second compound 1 µM, first compound 0.00316 µM): 102% | viability, T/C (second compound 1 µM, first compound 0.01 µM): 118% | viability, T/C [7]: 96.5% | viability, T/C [8]: 97.4% | viability, T/C (second compound 3.16 µM, first compound 0.000316 µM): 99.7% | viability, T/C (second compound 3.16 µM, first compound 0.001 µM): 103% | viability, T/C (second compound 3.16 µM, first compound 0.00316 µM): 98.9% | viability, T/C (second compound 3.16 µM, first compound 0.01 µM): 93.2% | viability, T/C [9]: 103% | viability, T/C [10]: 100% | viability, T/C (second compound 10 µM, first compound 0.000316 µM): 106% | viability, T/C (second compound 10 µM, first compound 0.001 µM): 105% | viability, T/C (second compound 10 µM, first compound 0.00316 µM): 115% | viability, T/C (second compound 10 µM, first compound 0.01 µM): 112% | viability, T/C [11]: 119% | viability, T/C [12]: 99.6%

From PubChem BioAssay AID1963849 (Molecular Pharmacology Branch, DTP, NCI, 2024)
